Measurements from patent publication US10710978B2, “STK4 inhibitors for treatment of hematologic malignancies” (Dana-Farber Cancer Institute, Inc., priority 2015, dated 2020).

Key:
[1] = system: PARP; assay: Western blotting; format: cell-based; settings: H929 cells, 1 μM, 24 hours
From the text: (§1) MM.1S, KMS20 and H929 cells are counted, diluted and plated. Cells are then […] with DMSO or different concentration of a compound of the present application for 6 hrs, 24 hrs or 48 hrs. MM cells are then collected and centrifuged at RT and the pellets are re-suspended in lysis buffer. Cell lysates are subjected to sodium dodecyl sulfate-polyacrylamide gel electrophoresis SDS-PAGE, transferred to nitrocellulose membranes, and immunoblotted with different antibodies.
(§2) MM.1S, KMS20 and H929 cells were counted, diluted and plated in six-well plates to a final concentration of 500,000 cells/well. Cells were then […] with DMSO or different concentration of a compound of the present application for 6 hrs, 24 hrs or 48 hrs. MM cells were then collected and centrifuged for 5 min, 1300 rpm at RT. The pellets were re-suspended in lysis buffer Laemli 1× (Laemli 5×: SDS 10%, DTT 500 mM, Tris-HCl pH6.8 0.4M, BromoFenol Blue, Glycerol 50%). Cell lysates were subjected to sodium dodecyl sulfate-polyacrylamide gel electrophoresis SDS-PAGE, transferred to nitrocellulose membranes, and immunoblotted with different antibodies: YAP1 (#4912), p-YAP1 (S127) (#13008), LATS1 (#9153), p-LATS1 (Thr1079) (#8654), MOB1 (#3863), p-MOB1 (Thr12) (#8843), p-MST1/p-MST2 (Thr183/Thr180) (#3681), p21 (#2947), PARP (#9532), ERK, STAT, and GAPDH (#5174) from Cell Signaling, Beverly, Mass., United States; STK4 (ab57836) (from Abcam, Cambridge, Mass., United States); PUMA (sc-28226), BAX (sc-20067), from Santa Cruz, Dallas, Tex., United States; β-actin from Sigma-Aldrich (St. Louis, Mo., United States). All antibodies were diluted 1:500, except for β-actin antibody (1:50,000 dilution). In FIG. 8, H929 cells were treated with Compound I-9 or DMSO at 1 μM concentration for 24 hours. Lysates were then obtained and immunoblot was performed using antibodies against PARP, YAP1, PUMA, BAX. p21, and GAPDH.

[2] = system: PUMA; assay: Western blotting; format: cell-based; settings: H929 cells, 1 μM, 24 hours
From the text: as §1, §2

[3] = system: p21; assay: Western blotting; format: cell-based; settings: H929 cells, 1 μM, 24 hours
From the text: as §1, §2

[4] = system: BAX; assay: Western blotting; format: cell-based; settings: H929 cells, 1 μM, 24 hours
From the text: as §1, §2

[5] = target: STK4 (Homo sapiens (Human), UniProt Q13043); assay: KiNativ Platform experiment, MM.1S cell lysates, biotinylated ATP, Western blot; format: binding; settings: 10 μM, 20 minutes, then biotinylated ATP 10 minutes
Chain of STK4 (Q13043 whole entry): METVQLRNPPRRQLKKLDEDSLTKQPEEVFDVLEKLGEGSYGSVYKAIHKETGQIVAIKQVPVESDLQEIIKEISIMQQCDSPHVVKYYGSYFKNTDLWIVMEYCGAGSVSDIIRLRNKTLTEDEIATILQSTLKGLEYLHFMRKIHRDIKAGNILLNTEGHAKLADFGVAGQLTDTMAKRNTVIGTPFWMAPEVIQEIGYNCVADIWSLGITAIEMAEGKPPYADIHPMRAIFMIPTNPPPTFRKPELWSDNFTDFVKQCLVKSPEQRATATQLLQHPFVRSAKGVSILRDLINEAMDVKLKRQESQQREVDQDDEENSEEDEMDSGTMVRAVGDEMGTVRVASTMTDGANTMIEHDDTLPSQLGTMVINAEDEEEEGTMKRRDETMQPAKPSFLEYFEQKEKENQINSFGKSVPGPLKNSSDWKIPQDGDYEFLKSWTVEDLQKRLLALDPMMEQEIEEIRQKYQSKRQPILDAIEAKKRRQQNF
Description: FIG. 32A and FIG. 32B show the results of a KiNativ™ Platform experiment obtained after incubating MM.1S cell lysates with 10 μM of the indicated compounds for 20 minutes, followed by incubation with biotinylated ATP for 10 minutes. FIG. 32A is a graph showing the ratio of MEK2 to STK4 derived from the Western blotting band signals in FIG. 32B, in MM.1S cell lysates treated with 10 μM of Compound I-9, I-13, or I-27 or KIN001-305 followed by incubation with biotinylated ATP. FIG. 32B is a Western blot showing the levels of STK4 and MEK2 in MM.1S cells treated with 10 μM of Compound I-9, I-13, or I-27 or KIN001-305 followed by incubation with biotinylated ATP.

In the case of `Nc1ncc(-c2cccc([N+](=O)[O-])c2F)cc1-c1ccc2c(c1)CCNC2=O` [Compound I-9, 6-(2-amino-5-(2-fluoro-3-nitrophenyl)pyridin-3-yl)-3,4-dihydroisoquinolin-1(2H)-one], the PARP cleavage [1] is reported as “induction of PARP cleavage”, the “protein levels of PUMA” value [2] is reported as “upregulation” and the “protein levels of p21” value [3] is reported as “upregulation”. The “protein levels of BAX” value [4] was “upregulation” and the “affinity for STK4, as of ATP binding” value [5] was “highest affinity”.
